Like-named read-outs stand apart in the source and are kept apart here.
System: NL4-3 strain of HIV-1
Assay: microbe, parasite or virus in culture
Format: cell-based
Method: The antiviral activity, particularly against HIV, of compounds according to the invention is evaluated by the protocol described below.
Preparation of Virus stock of the NL4-3 strain of HIV-1
The virus was prepared as described in Lopez et al (Lopez et al, Proc Natl Acad Sci USA., 2006, 103(40):14947-52, by transfecting 2×10^6 293T cells (CRL-1573, ATCC) with following modifications: 6 μg of NL4-3 proviral DNA molecular clone were mixed with Fugene 6 transfection reagent from Roche, and used according to manufacturer's instructions. Forty eight hours later, transfected cell supernatants were harvested, filtered through 0.45-μm-pore-size filters, quantified for HIV-1 p24 antigen by using a Innotest HIV antigen mAb assay (Ingen) according to manufacturer's instructions, and used in infection experiments.
Serial dilutions of compounds to be tested were prepared in complete RPMI medium from 10 mM DMSO stock solutions, and distributed in a volume of 20 μl in 96 well Falcon 353072 Microtest™ tissue culture plate, in order to get 0.5% DMSO final concentration in each well, after the addition of infected cells. Control wells contained also 0.5% DMSO final concentration but no compound.
MT4 cells (from the NIH AIDS Research and Reference Reagent Program) in RPMI complete medium were counted (10×10^6 cells per well in Falcon 353047 Multiwell™ 24 well) and infected for 2 hours at 37°, at a multiplicity of infection (moi) of 0.0001-0.00001. Cells were then centrifuged 3 min at 3000 rpm, and washed two times in 1 ml PBS to remove viruses that have not entered in cells. Infected cells were resuspended in complete RPMI at 1.25×10^6 cells/ml, and […] of infected cells were distributed in each well containing compounds to be tested or control wells. The plates were then incubated at 37° for 5 days.
Assay used to measure the inhibition of HIV replication by the compounds
(according to Gregg S. Jones et al., Antimicrobial Agents and Chemotherapy, 2009, 53 (3): 1194-1203).
After 5 days of incubation, 50 μl of CellTiter-Glo reagent (Promega Biosciences, Inc., Madison Wis., USA) were added to each well. Cell lysis was carried out at room temperature during 10 min, 150 μl of lysates were transferred in Packard Optiplate 96 well, and luminescence was read on a Fluoroskan (Thermo Scientific).
The EC50, or effective concentration 50, is the concentration of compound leading to 50% of cyto-protection in a Cell-Titer-Glo® viability assay based on MT4 cells infected with NL4.3 virus.

[1] = Human immunodeficiency virus 1, NL43, 120 h, concentration leading to 50% of cyto-protection, MT4 cells infected with NL4.3 virus, 5 days incubation, CellTiter-Glo, read-out: EC50

Structure (SMILES) | EC50 [1] [µM] | EC50 (Human immunodeficiency virus 1, NL43, MT4, 120 h) [µM]
Cc1cccc2sc(C(OC(C)(C)C)C(=O)O)c(-c3ccc4c(c3)CCCO4)c12 (stereo not shown) [Example 23, 2-(tert-butoxy)-2-[3-(3,4-dihydro-2H-1-benzopyran-6-yl)-4-methyl-1-benzothiophen-2-yl]acetic acid] | 23 | 
CC(C)(C)OC(C(=O)O)c1c(C(F)(F)F)nn(C2CCCCC2)c1-c1ccc2c(c1)CCCO2 (stereo not shown) [Example 54, 2-(tert-butoxy)-2-[1-cyclohexyl-5-(3,4-dihydro-2H-1-benzopyran-6-yl)-3-(trifluoromethyl)-1H-pyrazol-4-yl]acetic acid] | 2.2 | 
Cc1sc(C)c(C(SC(C)(C)C)C(=O)O)c1-c1ccc2c(c1)CCCO2 (stereo not shown) [Example 32, 2-(tert-butylsulfanyl)-2-[4-(3,4-dihydro-2H-1-benzopyran-6-yl)-2,5-dimethylthiophen-3-yl]acetic acid] | 26 | 
Cc1sc(C)c(C(OC(C)(C)C)C(=O)O)c1-c1ccc2c(c1)CCCO2 (stereo not shown) [Example 17, 2-(tert-butoxy)-2-[4-(3,4-dihydro-2H-1-benzopyran-6-yl)-2,5-dimethylthiophen-3-yl]acetic acid] | 26 | 
Cc1sc(C)c(C(OC(C)(C)C)C(=O)O)c1-c1ccc(Cl)cc1 (stereo not shown) [Example 50, tert-butoxy-[4-(4-chloro-phenyl)-2,5-dimethyl-thiophen-3-yl]-acetic acid] | 44 | 
Cc1sc(C)c(C(OC(C)(C)C)C(=O)O)c1C1=CCC(C)(C)CC1 (stereo not shown) [Example 52, tert-butoxy-[4-(4,4-dimethyl-cyclohex-1-enyl)-2,5-dimethyl-thiophen-3-yl]-acetic acid] |  | 33
Cc1sc(C)c(C(OC(C)(C)C)C(=O)O)c1C1=CCCCCC1 (stereo not shown) [Example 31, 2-(tert-butoxy)-2-[4-(cyclohept-1-en-1-yl)-2,5-dimethylthiophen-3-yl]acetic acid] | 29 | 
Cc1sc(C)c(C(OC(C)(C)C)C(=O)O)c1-c1ccc2c(c1)CCCC2 (stereo not shown) [Example 39, 2-(tert-butoxy)-2-[2,5-dimethyl-4-(5,6,7,8-tetrahydronaphthalen-2-yl)thiophen-3-yl]acetic acid] | 41 | 
Cc1sc(C)c(C(OC(C)(C)C)C(=O)O)c1C1=CCCCC1 (stereo not shown) [Example 29, 2-(tert-butoxy)-2-[4-(cyclohex-1-en-1-yl)-2,5-dimethylthiophen-3-yl]acetic acid] | 33 | 
CC1=C(c2ccc3c(c2)CCCO3)C(C(OC(C)(C)C)C(=O)O)=C(C)S1(=O)=O (stereo not shown) [Example 18, (tert-butoxy)[4-(3,4-dihydro-2H-1-benzopyran-6-yl)-2,5-dimethyl-1,1-dioxo-1λ^6-thiophen-3-yl]acetic acid] | 34 | 
Cc1cccc2c1C(c1ccc3c(c1)CCCO3)=C(C(OC(C)(C)C)C(=O)O)S2(=O)=O (stereo not shown) [Example 24, 2-(tert-butoxy)-2-[3-(3,4-dihydro-2H-1-benzopyran-6-yl)-4-methyl-1,1-dioxo-1λ^6-benzothiophen-2-yl]acetic acid] | 11 | 
Cc1sc(C)c(C(OC(C)(C)C)C(=O)O)c1-c1ccccc1Cl (stereo not shown) [Example 51, tert-butoxy-[4-(2-chloro-phenyl)-2,5-dimethyl-thiophen-3-yl]-acetic acid] | 41 | 
Cc1sc(Cl)c(-c2ccc3c(c2)CCCO3)c1C(OC(C)(C)C)C(=O)O (stereo not shown) [Example 44, 2-(tert-butoxy)-2-[5-chloro-4-(3,4-dihydro-2H-1-benzopyran-6-yl)-2-methylthiophen-3-yl]acetic acid] | 16 | 

Source: US9238026B2, “Inhibitors of viral replication, their process of preparation and their therapeutical uses” (priority 2011, dated 2016)
